According to PubChem BioAssay AID248 (DTP/NCI, 2004):
Where “and” joins values, the source holds several entries; their conditions need not be identical. Identical values can stand only once. Inconclusive results and toxic doses are left out. No stated cut-off is given here; in the data, active means T/C of 150% or more; inactive means T/C below 125%.

Tested on: L1210 leukemia ip in BDF1 mice, survival T/C
Assay: NCI In Vivo Anticancer Drug Screen. Data for tumor model L1210 Leukemia (intraperitoneal) in B6D2F1 (BDF1) mice
Conditions: endpoint: mean survival time, higher = longer survival
Procedure, shortened: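 Tumor was transplanted into mice, which were then dosed with test compound or vehicle alone. Survival was recorded for each group, and the treated figure was expressed relative to the control figure.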

[1] = dose: 50.0 mg/kg/injection, schedule: Q01DX009 (ip), vehicle: Klucel (hydroxypropylcellulose) (HPC)
[2] = dose: 100.0 mg/kg/injection, schedule: Q01DX009 (ip), vehicle: Klucel (hydroxypropylcellulose) (HPC)
[3] = dose: 100.0 mg/kg/injection, schedule: Q04DX003 (ip), vehicle: Klucel (hydroxypropylcellulose) (HPC)
[4] = dose: 200.0 mg/kg/injection, schedule: Q01DX009 (ip), vehicle: Klucel (hydroxypropylcellulose) (HPC)
[5] = dose: 200.0 mg/kg/injection, schedule: Q04DX003 (ip), vehicle: Klucel (hydroxypropylcellulose) (HPC)
[6] = dose: 100.0 mg/kg/injection, schedule: Q01DX009 (ip), vehicle: saline with Tween-80
[7] = dose: 100.0 mg/kg/injection, schedule: Q01DX001 (ip), vehicle: carboxymethylcellulose (CMC)
[8] = dose: 200.0 mg/kg/injection, schedule: Q01DX001 (ip), vehicle: carboxymethylcellulose (CMC)

Measured: T/C

COC(=O)c1c(C)cc(OC(=O)c2c(C)cc(OC)c(C)c2OC)c(C)c1O
inactive: dose: 50.0 mg/kg/injection, schedule: Q01DX001 (ip), vehicle: other 103 % of control | dose: 100.0 mg/kg/injection, schedule: Q01DX001 (ip), vehicle: other 97 % of control | dose: 200.0 mg/kg/injection, schedule: Q01DX001 (ip), vehicle: other 92 % of control | dose: 400.0 mg/kg/injection, schedule: Q01DX001 (ip), vehicle: other 92 % of control

CN(Cc1ccccc1)Cc1ccccc1
inactive: [1] 100 % of control | [2] 100 % of control | [3] 97 % of control | [4] 92 % of control | [5] 97 % of control

CCOC(=O)c1cnc(C)nc1Nc1ccccc1C
inactive: [3] 88 % of control | [5] 98 % of control | dose: 400.0 mg/kg/injection, schedule: Q04DX003 (ip), vehicle: Klucel (hydroxypropylcellulose) (HPC) 105 % of control

O=C(O)c1cc2ccccc2cc1O.Oc1cccc2cccnc12.[Cu]
inactive: dose: 0.5 mg/kg/injection, schedule: Q01DX015 (ip), vehicle: carboxymethylcellulose (CMC) 91 % of control | dose: 1.0 mg/kg/injection, schedule: Q01DX015 (ip), vehicle: carboxymethylcellulose (CMC) 91 % of control | dose: 4.0 mg/kg/injection, schedule: Q01DX015 (ip), vehicle: carboxymethylcellulose (CMC) 93 % of control | dose: 8.0 mg/kg/injection, schedule: Q01DX015 (ip), vehicle: carboxymethylcellulose (CMC) 89 % of control and 90 % of control

CC1(C)C(c2ccccc2)=NN=C1c1ccccc1
inactive: [6] 93 % of control | dose: 100.0 mg/kg/injection, schedule: Q04DX003 (ip), vehicle: saline with Tween-80 90 % of control | dose: 200.0 mg/kg/injection, schedule: Q01DX009 (ip), vehicle: saline with Tween-80 91 % of control | dose: 200.0 mg/kg/injection, schedule: Q04DX003 (ip), vehicle: saline with Tween-80 104 % of control | dose: 400.0 mg/kg/injection, schedule: Q01DX009 (ip), vehicle: saline with Tween-80 112 % of control | dose: 400.0 mg/kg/injection, schedule: Q04DX003 (ip), vehicle: saline with Tween-80 104 % of control

O=C1OC2C(I)C3CC1C2C3 (centres undefined)
inactive: dose: 50.0 mg/kg/injection, schedule: Q01DX009 (ip), vehicle: saline with Tween-80 96 % of control | [6] 95 % of control

CC1=CC(=O)CC(c2ccccc2)C1 (centres undefined)
inactive: [7] 105 % of control | [8] 103 % of control | dose: 400.0 mg/kg/injection, schedule: Q01DX001 (ip), vehicle: carboxymethylcellulose (CMC) 109 % of control

COc1ccc(CN=C(N)CSS(=O)(=O)O)cc1
inactive: dose: 12.5 mg/kg/injection, schedule: Q04DX002 (ip), vehicle: Klucel (hydroxypropylcellulose) (HPC) 97 % of control | dose: 25.0 mg/kg/injection, schedule: Q04DX002 (ip), vehicle: Klucel (hydroxypropylcellulose) (HPC) 97 % of control

CCCCCCCCCCCCCCC/C(CC)=N/Nc1ccc([N+](=O)[O-])cc1[N+](=O)[O-]
inactive: dose: 25.0 mg/kg/injection, schedule: Q01DX001 (ip), vehicle: Klucel (hydroxypropylcellulose) (HPC) 103 % of control | dose: 50.0 mg/kg/injection, schedule: Q01DX001 (ip), vehicle: Klucel (hydroxypropylcellulose) (HPC) 101 % of control | dose: 100.0 mg/kg/injection, schedule: Q01DX001 (ip), vehicle: Klucel (hydroxypropylcellulose) (HPC) 111 % of control

COc1cc(C2=N/C(=C\C=C\c3ccccc3)C(=O)O2)cc(OC)c1OC
inactive: dose: 100.0 mg/kg/injection, schedule: Q04DX002 (ip), vehicle: saline with Tween-80 95 % of control | dose: 200.0 mg/kg/injection, schedule: Q04DX002 (ip), vehicle: saline with Tween-80 95 % of control | dose: 400.0 mg/kg/injection, schedule: Q04DX002 (ip), vehicle: saline with Tween-80 95 % of control

CCOC(=O)c1cc(=O)c2cc(S(=O)(=O)F)ccc2[nH]1
inactive: [2] 95 % of control | [4] 97 % of control | dose: 400.0 mg/kg/injection, schedule: Q01DX009 (ip), vehicle: Klucel (hydroxypropylcellulose) (HPC) 97 % of control

S=C1NCCS1
inactive: dose: 50.0 mg/kg/injection, schedule: Q01DX001 (ip), vehicle: carboxymethylcellulose (CMC) 113 % of control | [1] 110 % of control | [7] 102 % of control | [2] 108 % of control | [3] 108 % of control | [8] 94 % of control | [4] 110 % of control | [5] 113 % of control

CCOC(=O)C1CCNC(=O)C1=O (centres undefined)
inactive: dose: 50.0 mg/kg/injection, schedule: Q01DX001 (ip), vehicle: saline 104 % of control | dose: 100.0 mg/kg/injection, schedule: Q01DX001 (ip), vehicle: saline 101 % of control | dose: 200.0 mg/kg/injection, schedule: Q01DX001 (ip), vehicle: saline 97 % of control
